Experimental data: patent US10098889B2, “Complexes and salts of dihydropyrimidine derivatives and their application in pharmaceuticals” (SUNSHINE LAKE PHARMA CO., LTD., priority 2015, dated 2018)

Legend:
Format in all cases: physicochemical
[1] = Illumination test (stability study)
Protocol: (§1) Illumination test: an appropriate amount of sample was put in a weighing bottle in the form of a thin layer of ≤5 mm, under a […] for 13 days. Appearance, impurity and purity of the samples were tested respectively at the 5th and 13th day.
(§2) Experimental results of stability study of the compound of (S)-4-(((R)-6-(2-chloro-4-fluorophenyl)-5-(methoxycarbonyl)-2-(thiazol-2-yl)-3,6-dihydropyrimidin-4-yl)methyl)morpholine-3-carboxylic acid amorphous and the complex of (S)-4-(((R)-6-(2-chloro-4-fluorophenyl)-5-(methoxycarbonyl)-2-(thiazol-2-yl)-1,6-dihydropyrimidin-4-yl)methyl)morpholine-3-carboxylic acid and L-tartaric acid and its various salt forms under high temperature, high humidity and illumination conditions are shown in Table 4.

[2] = High humidity test (stability study); conditions: 25° C.
Protocol: (§3) High humidity test: an appropriate amount of sample was put in a weighing bottle in the form of a thin layer of ≤5 mm, under a temperature of 25° C. for 10 days. Appearance, impurity and purity were tested respectively at the 5th and 10th day. If the moisture-absorption weight of the sample gains more than 5%, then the sample needs to be retested in the same manner under the conditions of 25° C. and RH75%±5%. If the moisture-absorption weight of the sample gains less than 5%, and other results meets the requirements, it is not necessary to do the experiment any more. (Note: the weighing bottle should be presaturated for one day by putting it into the humidistat (or a dryer containing a saturated solution of potassium nitrate) before high humidity test, then weighing the sample and weighing bottle together, and record the weight.)
as §2

[3] = Stability studies under high temperature, high humidity and illumination conditions (overall assessment); conditions: for Stability under high temperature, high humidity and illumination condition (in words): compared with amorphous compound (I)
Protocol: (§4) High temperature test: an appropriate amount of sample was put in a weighing bottle in the form of a thin layer of ≤5 mm, under a temperature of 60° C. for 10 days. Appearance, impurity and purity of the samples were tested respectively at the 5th and 10th day. […] If the sample has no significant change occurred at 60° C., it is not necessary to do the experiment under the condition of 40° C.
as §3, §1

[4] = High temperature test (stability study)
Protocol: as §4, §2

[5] = Experimental study of hygroscopicity; conditions: for Weighting percentage of moisture absorption (%): constant humidity
Protocol: A dry glass weighing bottle with a plug was placed in a suitable thermostatic drier at 25° C.±1° C. (ammonium chloride and saturated solution of ammonium sulfate were placed on the bottom) on the day before the experiment, and weighed precisely. The propriate amount of the sample was plated into the weighing bottle, wherein the thickness of the sample typically is about 1 mm, and weighed precisely (m2). The weighing bottle was open and placed with the plug in the above constant temperature and humidity condition for 24 hours. The capped weighing bottle was weighed precisely (m3), and the weight gain percentage was calculated (%).
Test method: according to the Ph. Eur. <5.11>; Ch. P. 2010; II appendix XIX J; Weighting percentage of moisture absorption (%)=(m3−m2)/(m2−m1)×100%
Hygroscopicity characteristics: weighting percentage of moisture absorption
Judgement of Hygroscopicity Result:
(1) Air slaking: absorbing enough water to form liquid
(2) Of quite hygroscopicity: not less than 15%
(3) Of hygroscopicity: less than 15% but not less 2%
(4) Of slight hygroscopicity: less than 2% but not less than 0.2%

[6] = Solubility (HPLC)
Protocol: The solubility disclosed herein was measured by Aglient 1200 high performance liquid chromatograph VWD detector. The chromatographic column model is Waters Xbridge-C18 (4.6×150 mm, […]). The detection wavelength was 250 nm, the flow rate was 1.0 mL/minute, the column temperature was 35° C., the mobile phase was acetonitrile water (v/v=40/60).

[7] = High temperature, 60° C., 5 days
[8] = High temperature, 60° C., 10 days

| SMILES | Appearance ([1]; 5 days) | Purity (%) ([1]; 5 days) | Total impurity (%) ([1]; 5 days) | Appearance ([1]; 13 days) | Purity (%) ([1]; 13 days) | Total impurity (%) ([1]; 13 days) | Appearance ([2]; 5 days) | Purity (%) ([2]; 5 days) | Total impurity (%) ([2]; 5 days) | Appearance ([2]; 10 days) | Purity (%) ([2]; 10 days) | Total impurity (%) ([2]; 10 days) | Appearance ([4]; 0 days) | Purity (%) ([4]; 0 days) | Total impurity (%) ([4]; 0 days) | Appearance [4, 7] | Purity (%) [4, 7] [%] | Total impurity (%) [4, 7] [%] | Appearance [4, 8] | Purity (%) [4, 8] [%] | also measured |
| --- | --- | --- | --- | --- | --- | --- | --- | --- | --- | --- | --- | --- | --- | --- | --- | --- | --- | --- | --- | --- | --- |
| Br.COC(=O)C1=C(CN2CCOC[C@H]2C(=O)O)N=C(c2nccs2)N[C@H]1c1ccc(F)cc1Cl [(S)-4-(((R)-6-(2-chloro-4-fluorophenyl)-5-(methoxycarbonyl)-2-(thiazol-2-yl)-1,6-dihydropyrimidin-4-yl)methyl)morpholine-3-carboxylic Acid Hydrobromide] | yellow | 97.63 | 2.37 | yellow | 96.06 | 3.94 | yellow | 99.68 | 0.32 | yellow | 99.64 | 0.36 | yellow | 99.70 | 0.30 | yellow | 99.69 | 0.31 | yellow | 99.63 | Stability under high temperature, high humidity and illumination condition (in words) [3]: better stability; Total impurity (%) [4, 8]: 0.37% |
| COC(=O)C1=C(CN2CCOC[C@H]2C(=O)O)N=C(c2nccs2)N[C@H]1c1ccc(F)cc1Cl.Cl [(S)-4-(((R)-6-(2-chloro-4-fluorophenyl)-5-(methoxycarbonyl)-2-(thiazol-2-yl)-1,6-dihydropyrimidin-4-yl)methyl)morpholine-3-carboxylic Acid Hydrochloride] | yellow | 97.59 | 2.41 | yellow | 97.47 | 2.53 | yellow | 99.65 | 0.35 | yellow | 99.59 | 0.41 | yellow | 99.63 | 0.37 | yellow | 99.63 | 0.37 | yellow | 99.43 | Stability under high temperature, high humidity and illumination condition (in words) [3]: better stability; Total impurity (%) [4, 8]: 0.57% |
| COC(=O)C1=C(CN2CCOC[C@H]2C(=O)O)N=C(c2nccs2)N[C@H]1c1ccc(F)cc1Cl.O=C(O)C(O)C(O)C(=O)O [Complex of (S)-4-(((R)-6-(2-chloro-4-fluorophenyl)-5-(methoxycarbonyl)-2-(thiazol-2-yl)-1,6-dihydropyrimidin-4-yl)methyl)morpholine-3-carboxylic Acid and L-tartaric Acid] | yellow | 99.86 | 0.14 | yellow | 99.84 | 0.16 | yellow | 99.84 | 0.16 | yellow | 99.82 | 0.18 | yellow | 99.85 | 0.15 | yellow | 99.83 | 0.17 | yellow | 99.84 | Hygroscopicity (in words) [5]: much smaller; Judgement of hygroscopicity result ([5]; 25° C.±1° C., 24 hours): of no or little hygroscopicity; Weighting percentage of moisture absorption (%) ([5]; 25° C.±1° C., 24 hours, listed as Crystalline form I(A) of the complex of compound (Ia) and L-tartaric acid): 0.029%; Weighting percentage of moisture absorption (%) ([5]; 25° C.±1° C., 24 hours, listed as crystalline form I(A) of the complex of compound (Ia) and L-tartaric acid): 0.029%; Stability under high temperature, high humidity and illumination condition (in words) [3]: best stability; Change of appearance and purity under high temperature, high humidity and illumination condition ([3]; listed as L-tartaric acid complex having crystalline form I(A)): basically unchanged; Change of appearance and purity under high temperature, high humidity and illumination condition ([3]; listed as complex formed from compound (I) and L-tartaric acid): unchanged substantially; Solubility (in words) [6]: good solubility; Total impurity (%) [4, 8]: 0.16%; oxide impurities ([4]; preparation purity, from Table 4): less than 0.2% |
| COC(=O)C1=C(CN2CCOC[C@H]2C(=O)O)NC(c2nccs2)=N[C@H]1c1ccc(F)cc1Cl [(S)-4-(((R)-6-(2-chloro-4-fluorophenyl)-5-(methoxycarbonyl)-2-(thiazol-2-yl)-3,6-dihydropyrimidin-4-yl)methyl)morpholine-3-carboxylic Acid] | a yellow | 93.72 | 6.28 | a yellow | 90.56 | 9.44 | a yellow | 97.51 | 2.49 | a yellow | 97.42 | 2.58 | a yellow | 97.54 | 2.46 | a yellow | 96.99 | 3.01 | a yellow | 95.65 | Hygroscopicity (in words) [5]: certain hygroscopicity; Weighting percentage of moisture absorption (%) ([5]; 25° C.±1° C., 24 hours, listed as Compound (I) prepared by Example 1): 1.441%; Weighting percentage of moisture absorption (%) ([5]; 25° C.±1° C., 24 hours, listed as compound (I)): 1.441%; Total impurity (%) [4, 8]: 4.35% |
